This assay relates to macrophages. As to the kind of experiment: Immunohistochemical count of macrophages (anti-F4/80) recruited to the wound. Conditions: natural Ot-WHP dripped to wound; days 2 and 3 after operation; vs negative control. The class given is in vivo, mice. Here is the method: The mice were treated according to the method in Example 3. The drugs in the negative control group and the natural Ot-WHP group were dripped to wounds of corresponding mice. At specified time point (0.5, 1, 2, 3 days) after the operation, the mice were sacrificed. A biopsy tissue containing the wound center was taken, immobilized with 10% formalin, then dehydrated by ethanol, washed with xylene, and finally embedded in paraffin. The paraffin block was cut into 5 μm slices, deparaffinized, and hydrated, and antigen retrieval was performed for immunohistochemical analysis. The slice was blocked with 5% BSA for non-specific sites, incubated with the primary antibody (anti-Ly6G for neutrophils, and anti-F4/80 for macrophages) at 4° C., and immunostained with horseradish peroxidase and DBA. The infiltration by neutrophils and macrophages was measured by statistically counting the immunostained anti-Ly6G and anti-F4/80 cells.
FIGS. 4A1-A4 show the immunohistochemical results of neutrophils recruited on days 0.5 and 1 after operation of mice in different groups. FIGS. 4C1-C4 show the immunohistochemical results of macrophages recruited on days 2 and 3 after operation of mice in different groups. FIGS. 4B1-B2 show the statistical results of neutrophils recruited on days 0.5 and 1 after operation of mice in different groups. […]

Regarding “Ot-WHP: immunomodulating peptide of 24 amino acids from concave-eared torrent frog skin, sequence ATAWDLGPHGIRPLRPIRIRPLCG (SEQ ID NO:1); natural (purified) or chemically synthesized (Ot-WHP Peptide; listed as Odorrana tormota)”, the “migration of macrophages to the wound” value is “promote the migration of neutrophils and macrophages to the wound”.

The values above are taken from US11884706B2, “Immunomodulating peptide derived from concave-eared torrent frog and use thereof” (priority 2019, dated 2024).
